Consider ten compounds from PubChem BioAssay (NCI).

Molecules are shown by their SMILES. Several values for one entry are separate records, joined by “and”; a condition that tells them apart may be missing. Equal values may be shown once.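 A five-concentration, 48-hour dose response in 96-well plates underlies each endpoint, interpolated linearly between surrounding concentrations. GI50 marks 50% less growth. TGI: concentration producing complete growth inhibition.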

Some test systems named below: TK-10 renal; SNB-19 CNS; RXF 393 renal; K-562 leukemia; COLO 205 colon; MDA-MB-435; NCI-H226 lung; NCI-H460 lung; SK-MEL-2 melanoma; HT29 colon; SK-OV-3 ovarian; SNB-75 CNS; MALME-3M melanoma; HCT-15 colon; OVCAR-4 ovarian; MCF7 breast.
Test in all cases: growth of human tumour cells (NCI), 48 h

As to `Cn1c(=Nc2ccc(Cl)cc2)sc2ccccc21`, the TGI is 98.1 µM in the experiment with TK-10 renal; more than 100 µM with SNB-19 CNS; more than 100 µM with RXF 393 renal; more than 100 µM with K-562 leukemia; 81.3 µM in the experiment on COLO 205 colon; more than 100 µM in the experiment with MDA-MB-435. The TGI in the experiment on NCI-H226 lung, with NCI-H460 lung, in the experiment on SK-MEL-2 melanoma, in the experiment on HT29 colon, in the experiment on SK-OV-3 ovarian and with SNB-75 CNS was more than 100 µM throughout. Moreover, the figures for the TGI in the experiment with MALME-3M melanoma, in the experiment with HCT-15 colon and with OVCAR-4 ovarian were more than 100 µM, 65.7 µM and more than 100 µM, respectively.
Consider `Cc1ccc(O)c(C2=CC3=NNC(=O)C3C(c3cccc(Cl)c3)C2)c1` (stereo not drawn), for which the TGI was 57.5 µM in the experiment on TK-10 renal; 47.1 µM in the experiment with MCF7 breast; more than 100 µM in the experiment on SNB-19 CNS; 9.62 µM in the experiment with RXF 393 renal; more than 100 µM with K-562 leukemia; 30.4 µM with COLO 205 colon. Besides, the TGI in the experiment on MDA-MB-435 was more than 100 µM; in the experiment with NCI-H460 lung, more than 100 µM; in the experiment with SK-MEL-2 melanoma, 86.2 µM; in the experiment on HT29 colon, 63.9 µM; with SK-OV-3 ovarian, more than 100 µM; with SNB-75 CNS it was 76.2 µM. In addition, the TGI in the experiment with MALME-3M melanoma is 94 µM; in the experiment on HCT-15 colon, more than 100 µM; with OVCAR-4 ovarian, 44.3 µM.
With `COc1cccc(-c2cc(=O)c3cc4c(cc3[nH]2)OCO4)c1`, the TGI in the experiment with TK-10 renal was 54.5 µM; with SNB-19 CNS it was more than 45.1 µM; with RXF 393 renal, 0.474 µM; with K-562 leukemia it was more than 100 µM; with COLO 205 colon it was 0.303 µM; with NCI-H226 lung, 0.593 µM. Moreover, the TGI with NCI-H460 lung is 0.898 µM; with SK-MEL-2 melanoma it was 3.77 µM; in the experiment on HT29 colon, 2.37 µM; in the experiment on SK-OV-3 ovarian, 1.15 µM; with SNB-75 CNS, 0.245 µM; with MALME-3M melanoma, more than 67.6 µM. Besides, in the experiment on HCT-15 colon, the TGI stood at 8.25 µM.
As to `Oc1ccc(/C=C/c2cccc(/C=C/c3ccc(O)c(O)c3)n2)cc1O`, the TGI in the experiment on TK-10 renal turned out to be 23.6 µM; in the experiment with MCF7 breast, 25.8 µM; in the experiment with SNB-19 CNS, 18.8 µM; in the experiment on K-562 leukemia, 49.6 µM; in the experiment with COLO 205 colon, 28.9 µM; in the experiment on MDA-MB-435, 28 µM. The TGI in the experiment on NCI-H460 lung was 38.1 µM; in the experiment with SK-MEL-2 melanoma, 32.5 µM; in the experiment with HT29 colon, 24.5 µM; in the experiment on SK-OV-3 ovarian it was 34 µM; with SNB-75 CNS, 16.5 µM; in the experiment on HCT-15 colon, more than 100 µM. The TGI in the experiment with OVCAR-4 ovarian is more than 100 µM.
Take `COc1cc(C(=O)N[C@H]2CCc3cc(OC)c(OC)c(OC)c3-c3ccc(SC)c(=O)cc32)cc(OC)c1OC`: the GI50 was 16.1 µM in the experiment with TK-10 renal, 0.02 µM with SK-MEL-2 melanoma, 0.0224 µM in the experiment on MALME-3M melanoma and 0.0285 µM in the experiment on OVCAR-4 ovarian. The TGI is 25 µM and > 100 µM in the experiment on TK-10 renal; more than 100 µM with SNB-19 CNS; 25 µM and > 100 µM in the experiment on K-562 leukemia; 0.0137 µM and 0.0808 µM in the experiment on NCI-H460 lung; more than 100 µM in the experiment with HT29 colon; 0.0203 µM with SK-OV-3 ovarian. Also, the TGI in the experiment on SNB-75 CNS was 48.6 µM; in the experiment on MALME-3M melanoma, 17.5 µM and 14.9 µM; with HCT-15 colon, 25 µM; in the experiment on OVCAR-4 ovarian, 25 µM and > 100 µM.
Turning to `O=C1C[C@@]23CCC4(CC2CCC[C@H]3O1)OCCO4` (stereo partly drawn), the TGI in the experiment with MCF7 breast, in the experiment on SNB-19 CNS, with RXF 393 renal, in the experiment on K-562 leukemia, in the experiment on COLO 205 colon and in the experiment on MDA-MB-435 was more than 100 µM each time. Moreover, the TGI in the experiment on NCI-H226 lung, in the experiment with NCI-H460 lung, in the experiment with SK-MEL-2 melanoma, with HT29 colon, in the experiment with SK-OV-3 ovarian and in the experiment on MALME-3M melanoma was more than 100 µM throughout. In addition, the TGI in the experiment on HCT-15 colon and in the experiment with OVCAR-4 ovarian was more than 100 µM in each case.
As to `O=C(c1ccccc1)N1C(=O)N(c2ccccc2)C(=Nc2ccccc2)C1=Nc1ccccc1`, the TGI with TK-10 renal, in the experiment on SNB-19 CNS, in the experiment on RXF 393 renal, in the experiment on K-562 leukemia, in the experiment with COLO 205 colon and with MDA-MB-435 was more than 100 µM each time. The TGI with NCI-H226 lung, in the experiment with NCI-H460 lung, in the experiment with SK-MEL-2 melanoma, with HT29 colon, in the experiment on SK-OV-3 ovarian and in the experiment on SNB-75 CNS was more than 100 µM throughout. Also, the TGI with MALME-3M melanoma, in the experiment with HCT-15 colon and in the experiment with OVCAR-4 ovarian was more than 100 µM in each case.
Regarding `O=c1cc(-c2ccccc2)[nH]c2cc(F)cc(F)c12`, the TGI was more than 100 µM in the experiment with TK-10 renal; 81.7 µM in the experiment on RXF 393 renal; more than 100 µM in the experiment on K-562 leukemia; 38.9 µM in the experiment on COLO 205 colon; 80.5 µM in the experiment with NCI-H226 lung; more than 100 µM with NCI-H460 lung. The TGI is 84.4 µM in the experiment on SK-MEL-2 melanoma; more than 100 µM in the experiment on HT29 colon; more than 100 µM in the experiment on SK-OV-3 ovarian; 46.9 µM with SNB-75 CNS; 79.4 µM with MALME-3M melanoma; more than 100 µM in the experiment on HCT-15 colon. This compound yielded a TGI in the experiment on OVCAR-4 ovarian of more than 100 µM.
Regarding `O=c1[nH]ncc2[nH]c3c4ccccc4ccc3c12`, the TGI with TK-10 renal was more than 100 µM; in the experiment on MCF7 breast, 54.9 µM; in the experiment with RXF 393 renal it was more than 100 µM; in the experiment on K-562 leukemia, more than 100 µM; with COLO 205 colon it was 96.1 µM; with MDA-MB-435, 62.4 µM. Further, the TGI was more than 100 µM in the experiment with NCI-H460 lung; more than 100 µM with HT29 colon; more than 100 µM in the experiment with SK-OV-3 ovarian; more than 100 µM in the experiment with MALME-3M melanoma; 39.6 µM with HCT-15 colon; more than 100 µM in the experiment on OVCAR-4 ovarian.
With `Cc1ccc(S(=O)(=O)CNC(=O)C(O)(O)C(F)(F)F)cc1`, the TGI in the experiment on TK-10 renal, in the experiment with MCF7 breast, with SNB-19 CNS, in the experiment on RXF 393 renal, with K-562 leukemia and in the experiment on COLO 205 colon was more than 100 µM in each case. Also, the TGI in the experiment with MDA-MB-435, in the experiment on NCI-H460 lung, with SK-MEL-2 melanoma, with HT29 colon, in the experiment with SK-OV-3 ovarian and in the experiment with MALME-3M melanoma was more than 100 µM in each case. Besides, the TGI in the experiment on HCT-15 colon and in the experiment on OVCAR-4 ovarian was more than 100 µM in each case.
